Experimental findings from PMC5768343, “A natural inhibitor of kidney-type glutaminase: a withanolide from Physalis pubescens with potent anti-tumor activity” (Oncotarget, 2017) are described below.

In assay [1] the target is T1, intracellular KGA (Homo sapiens, UniProt O94925).
T1 construct: endogenous in cells; host or cells: SW1990
T1 sequence (O94925 55-669): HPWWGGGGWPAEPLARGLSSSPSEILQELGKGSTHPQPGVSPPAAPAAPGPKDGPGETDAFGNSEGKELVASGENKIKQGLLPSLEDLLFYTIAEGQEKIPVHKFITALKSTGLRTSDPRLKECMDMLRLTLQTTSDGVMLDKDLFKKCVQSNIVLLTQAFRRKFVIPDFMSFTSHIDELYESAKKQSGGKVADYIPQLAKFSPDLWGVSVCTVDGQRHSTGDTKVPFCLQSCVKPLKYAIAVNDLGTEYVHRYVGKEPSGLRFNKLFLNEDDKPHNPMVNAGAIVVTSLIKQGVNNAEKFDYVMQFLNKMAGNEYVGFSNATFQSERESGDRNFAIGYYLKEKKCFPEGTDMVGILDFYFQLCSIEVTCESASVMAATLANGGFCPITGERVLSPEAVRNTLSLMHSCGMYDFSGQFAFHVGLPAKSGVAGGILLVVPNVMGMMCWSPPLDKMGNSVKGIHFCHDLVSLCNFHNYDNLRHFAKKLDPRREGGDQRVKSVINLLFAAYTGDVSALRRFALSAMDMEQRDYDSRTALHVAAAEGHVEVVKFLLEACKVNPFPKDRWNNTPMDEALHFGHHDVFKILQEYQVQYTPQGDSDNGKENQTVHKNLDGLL
Put plainly: Cellular thermal shift assay (CETSA) in intact SW1990 cells. The assay is classed as cell-based. As to conditions: 10 μM, 4 hours, 48°C without compound. The source says: To further investigate the interaction of the compound with KGA, microscale thermophoresis method (MST) was used to assay the binding affinity between physapubescin K and KGA. This technology can quantify protein-protein or protein-small molecule interactions with high sensitivity through detecting fluorescent changes of molecules during thermophoresis. […] However, it was of vital importance to verify whether it could bind with the intracellular KGA. The cellular thermal shift assay (CETSA), which based on the biophysical principle of ligand-induced thermal stabilization of target protein [25], was thus conducted to investigate its affinity with intracellular KGA. […] As shown in Figure 4B and 4C, physapubescin K increased the thermal stability of KGA in intact cells from tolerate temperature of 48°C to temperature of 50°C.
The ability of compounds to interact with, and thereby stabilize the target in intact cells, was analyzed essentially as described by Alshareef A et al.. Briefly, cells cultured in 10-cm tissue culture dishes at about 90% confluence were treated with media containing DMSO or 10 μM physapubescin K for 4 hours. After treatment, cells were detached with cell scraper, collected by centrifugation and subsequently resuspended in PBS. The cell suspension was aliquoted into seven PCR tubes and heated for 3 minutes to 40, 42, 44, 46, 48, 50 or 52°C. […]

The test system of assay [2] is SW1990 cells. The assay is described as follows: ROS quantification (DCFDA assay). The assay is classed as cell-based, human. As to conditions: 2.5 or 5 μM, 24 h. The method, then:
DCFDA assay was performed 24 h after interfered with difference concentration of physapubescin K or DMSO. Cells were incubated with 5 μM 2′,7′-dichlorodihydrofluorescein diacetate (DCFDA, KeyGen, Nanjing, China A124) for 30 min. Cells were washed twice with PBS to remove excess DCFDA, and the labeled cells were then collected in PBS. The fluorescent of 2′,7′-dichloro-fluorescein (DCF) was proportionate to ROS generation and was measured by microplate reader.

In assay [3] the test system is SW1990 cells. Put plainly: Flow cytometric analysis for apoptosis (Annexin V/PI). Format: cell-based, human. As to conditions: SW1990, 24 h. The procedure: SW1990 cells were cultured in six-well plates and treated with different concentrations of physapubescin K for 24 h. Then the cells were harvested, washed twice with ice-cold PBS, and mixed in 100 μL of 1× binding buffer (10 mM HEPES/ NaOH, pH 7.4, 140 mM NaCl, 2.5 mM CaCl2). After incubating with Annexin-V and PI staining liquid (Nanjing KeyGen Biotech. Inc.) for 15 min at room temperature, the cells were examined by flow cytometry (BD Biosciences, FACSCalibur).

Assay [4] concerns SW1990 cells. The assay is described as follows: Combination with benserazide, CCK8 viability and CompuSyn combination index. Format: cell-based, human. The conditions noted are these: combined use with benserazide, ratio less than 1:50, CompuSyn. The source says: Tumor cells are speculated to maintain growth and proliferation through a variety of energy metabolism pathways. Therefore, targeting at a single energy metabolism material might not be an effective method for cancer therapy. It has been determined that growing cancer cells were strongly dependent on energy sources such as glucose and glutamine. We supposed that the blocking of both glucose and glutamine metabolism pathways could display a synergistic tumor inhibition. Hexokinase 2 (HK2) was the crucial enzyme controlling the first step of glycolysis, and systemic deletion of HK2 can impair the tumor progression in mouse models. Nowadays, Metformin (Met), 2-Deoxyglucose (2-DG) and 3-Bromopyruvate (3-BrPA) are most commonly reported HK2 inhibitors. […] The combined inhibitory effects of physapubescin K and benserazide on the growth of SW1990 cells were evaluated. […]
Figure 8 Synergy of physapubescin K (PSBK) in combination treatments (A) Cells were cultured for 1 day with or without the indicated doses of PSBK and benserazide, and cell viability was evaluated by CCK8 assay. (B) At the indicated concentration ratio of PSBK: benserazide combinations at different effect levels, ED50, ED75 and ED95 were calculated using the CompuSyn software. […] The proportion of cells in proliferation is counted by manual counting (D).

Assay [5] relates to HCC827-ER. Put plainly: EdU and DAPI double staining, combination with erlotinib. The assay is classed as cell-based, human. The conditions noted are these: 0.5 μM with erlotinib 1, 2, 4, 8 μM. The procedure:
The logarithmic growth phase cells were seeded in 24-well plates at 2 × 10^4 ∼ 5 × 10^5 cells per well. After 4–6 h, the medium was removed, the medium containing no or different concentrations of compound was replaced, and 50 μM of EdU was added. 2 h later, the medium was removed, cells washed by PBS. 200 μL of cell fixative (i.e., PBS containing 4% paraformaldehyde) was added and incubated at room temperature for 30 minutes. The solution was discarded and 200 μL of 2 mg/mL glycine was added to each well. After 5 minutes of incubation, the glycine solution was discarded. Each well washed with 200 μL of PBS, rinse for 5 minutes, and PBS was removed. Apollo staining was added to each well with 200 μL of 1 X Apollo® staining solution. After incubation for 30 minutes at room temperature and decolorization, the reaction solution was discarded. Similarly, 200 μL of 1 × Hoechst 33342 solution was added to each well to dye the total DNA. After 30 minutes of incubation at room temperature and the reaction solution was discarded, and then the images were captured and analyzed by fluorescence microscopy.

With `CO[C@H]1O[C@@H]([C@@H](C)[C@H]2C[C@H](OC(C)=O)[C@H]3[C@@H]4C[C@H]5O[C@]56[C@@H](O)C=CC(=O)[C@]6(C)[C@H]4CC[C@@]32C)C[C@]2(C)O[C@]12C` [physapubescin K], in assay [1], the “thermal stability of KGA, tolerate temperature” value was 50 °C. Moreover, the “intracellular reactive oxygen species (ROS) levels” value in assay [2] was “significantly increase”. Moreover, the apoptosis entry in assay [3] is given as “induce apoptosis”. Besides, the CI value result in assay [4] is recorded as “less than 0.8”. For the same compound, the “sensitivity of HCC827-ER to erlotinib” value in assay [5] was “significantly increase the sensitivity”.
